In PubChem BioAssay (NCI):
Values joined by “and” are separate entries in the source; they are usually repeats but may differ in a detail not shown here. Equal entries are not always repeated.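 Where inhibition never reached the appropriate level, the endpoint shown equals the highest concentration tested. Otherwise, values were interpolated linearly from a five-concentration, 48-hour dose response in 96-well plates. Here, GI50 denotes the concentration required for 50% inhibition of growth. TGI: concentration producing complete growth inhibition.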

Columns and labels:
Experiment in all cases: growth of human tumour cells (NCI), 48 h
[1] = system: CAKI-1 renal
[2] = system: COLO 205 colon
[3] = system: DU-145 prostate
[4] = system: HCT-116 colon
[5] = system: HCT-15 colon
[6] = system: HOP-62 NSCLC
[7] = system: KM12 colon
[8] = system: MCF7 breast
[9] = system: SF-268 CNS
[10] = system: TK-10 renal

Compound	GI50 [1]	TGI [1]	GI50 [2]	TGI [2]	GI50 [3]	TGI [3]	GI50 [4]	TGI [4]	GI50 [5]	TGI [5]	GI50 [6]	TGI [6]	GI50 [7]	TGI [7]	GI50 [8]	TGI [8]	GI50 [9]	TGI [9]	GI50 [10]	TGI [10]
Cc1cc(-c2ncc(CC(=O)Nc3ccc(-c4cnccn4)cn3)cc2C)ccn1	17100 nM	> 100 µM	42800 nM	> 100 µM	72900 nM	> 100 µM	49000 nM	> 100 µM	38400 nM	> 100 µM	33500 nM	> 100 µM	36100 nM	> 100 µM	19100 nM	> 100 µM	96000 nM	> 100 µM	16400 nM	> 100 µM
CNc1ccc2nc3ccc(=[N+](C)C)cc-3sc2c1	1280 nM and 1400 nM	9.17 µM and 6.02 µM	626 nM and 365 nM	3.03 µM and 1.44 µM	3600 nM and 2760 nM	16.1 µM and 11.9 µM	304 nM and 246 nM	8.7 µM and 1.47 µM	1570 nM and 424 nM	18.2 µM and 16.5 µM	2540 nM and 867 nM	15.7 µM and 7.92 µM	1150 nM and 651 nM	17.6 µM and 11.6 µM	801 nM and 284 nM	6.84 µM and 3.62 µM	2280 nM and 465 nM	18.7 µM and 8.7 µM	2300 nM and 3360 nM	7.69 µM and 14.6 µM
O=C1NCc2ccc3c(-c4cccc(Cl)c4)c[nH]c3c21	205 nM	> 50 µM	297 nM		279 nM	> 50 µM	217 nM	9.07 µM	163 nM	> 50 µM	324 nM	> 50 µM	196 nM	> 29.7 µM	177 nM	> 50 µM	500 nM	> 50 µM	7120 nM	> 50 µM
C=CCn1c2c(c3ccccc3c1=O)C(=O)c1ccccc1-2		> 100 µM		> 100 µM		> 100 µM		> 100 µM		> 100 µM		> 100 µM		> 100 µM		> 100 µM		> 100 µM		> 100 µM
O=C(CCCCCCSc1nc(-c2ccccc2)cc(-c2ccc(Cl)cc2)n1)NO	1510 nM	6.89 µM	2380 nM	5.76 µM	2250 nM	10.6 µM	1140 nM	12.4 µM	2270 nM	14 µM	1960 nM	5.24 µM	2970 nM	13.5 µM	1950 nM	13.3 µM	2440 nM	6.75 µM	2780 nM	13.5 µM
COc1ccc(-c2nn3ncccc3c2-c2ccnc(Nc3ccc(Cl)c(C(F)(F)F)c3)n2)cc1	12400 nM	> 25 µM	12700 nM	> 25 µM	14000 nM	> 25 µM	8010 nM	> 25 µM	9970 nM	> 25 µM	15500 nM	> 25 µM	9890 nM	> 25 µM	6530 nM	> 25 µM	11600 nM	> 25 µM	13200 nM	> 25 µM
COc1cc(-c2nn(-c3ccc(NC(=O)c4ccc(Cl)c(Cl)c4)cc3)cc2-c2ccncc2)ccc1Cl	3670 nM	> 100 µM	3620 nM	> 100 µM	> 100000 nM	> 100 µM	4600 nM	> 100 µM	2680 nM	> 100 µM	2280 nM	7.51 µM	5970 nM	> 100 µM	5530 nM	> 100 µM	> 100000 nM	> 100 µM	> 100000 nM	> 100 µM
C=C1CC2(OC1=O)C(=O)N(CCCCCCCN1C(=O)C3(CC(=C)C(=O)O3)c3ccccc31)c1ccccc12 (centres undefined)	1400 nM	5.96 µM	1380 nM	5.58 µM	2890 nM	9.49 µM	1490 nM	5.07 µM	1300 nM	4.61 µM	6800 nM	15.4 µM	3390 nM	11.6 µM	1350 nM	6.9 µM	3970 nM	12 µM	2190 nM	8.32 µM
Cc1ncc(CN=Cc2ccc(Cl)cc2)c(N)n1		> 100 µM		> 100 µM		> 100 µM		> 100 µM		> 100 µM		> 100 µM		> 100 µM		> 100 µM		> 100 µM		> 100 µM
CCOC(=O)c1ccc(NC(=O)N2CC(C)OC(C)C2)cc1 (centres undefined)	> 100000 nM	> 100 µM	> 100000 nM	> 100 µM	> 100000 nM	> 100 µM	> 100000 nM	> 100 µM	> 100000 nM	> 100 µM	> 100000 nM	> 100 µM	> 100000 nM	> 100 µM	> 100000 nM	> 100 µM	> 100000 nM	> 100 µM	> 100000 nM	> 100 µM
COc1cccc(C2CC(C)(N3CCCC3)Oc3cc4c(cc32)OCO4)c1O (centres undefined)		> 100 µM		39.7 µM		> 96.3 µM		> 63.6 µM		70 µM		90.1 µM		> 100 µM		> 91.2 µM		> 92.1 µM		> 93.9 µM
COc1ccc(-c2nc3sc(C)cn3c2/C=C/C(=O)c2cc(OC)c(OC)c(OC)c2)cc1	5150 nM	> 100 µM	4700 nM	> 100 µM	3690 nM	> 100 µM	3800 nM	> 100 µM	3350 nM	> 100 µM	4280 nM	> 100 µM	2690 nM	6.39 µM	3130 nM	> 100 µM	3530 nM	> 100 µM	5550 nM	> 100 µM
COc1cc2c(cc1OC)C(=O)/C(=C/c1cccc(OCC(=O)c3ccccc3)c1)C2	12700 nM	79.3 µM	28000 nM	> 100 µM	11300 nM	> 100 µM	5440 nM	> 100 µM	9300 nM	> 100 µM	35800 nM	> 100 µM	7790 nM	> 100 µM	5830 nM	> 100 µM	15300 nM	63.3 µM	57800 nM	> 100 µM
CCN(CC)CCOc1nc2ccc(OC)cc2c2c1-c1ccc(OC)cc1C2=O	1150 nM	2.88 µM	546 nM	1.93 µM	626 nM	1.88 µM	368 nM	1.64 µM	584 nM	2.27 µM	1330 nM	6.19 µM	519 nM	1.77 µM	367 nM	1.53 µM	595 nM	2.02 µM	1380 nM	2.95 µM
COc1cc(/C(C#N)=C/c2ccc3c(c2OC)OCO3)cc2c1OCO2	93.3 nM	> 100 µM	94.1 nM	3.14 µM	122 nM	3.63 µM	49.2 nM	> 35.7 µM	74.8 nM	> 100 µM	138 nM	14.3 µM	42.4 nM	> 100 µM	48.2 nM	> 100 µM	96.9 nM	15.8 µM	982 nM	37.2 µM
COc1ccc2c(c1)/C(=C\c1c(C)nc3sc(C)cn13)C(=O)N2C	1330 nM	4.33 µM	3420 nM	49.8 µM	11000 nM	> 100 µM	6000 nM	> 100 µM	2730 nM	40.3 µM	20500 nM	> 100 µM	4870 nM	43.4 µM	3290 nM	35.4 µM	4620 nM	39 µM	4350 nM	37.8 µM
N=C1C(c2nc(-c3ccc(Br)cc3)cs2)=C(O)CN1Cc1cccnc1	35000 nM	> 100 µM	11900 nM	38.4 µM	17400 nM	63.1 µM	1750 nM	24 µM	24400 nM	> 100 µM	17100 nM	> 100 µM	18900 nM	> 100 µM	9760 nM	> 100 µM	31600 nM	> 100 µM	2230 nM	45.3 µM
COc1cc([C@H]2c3cc4c(cc3O[C@@]3(O)COC(=O)[C@@H]23)OCO4)cc(OC)c1OC		> 100 µM		> 100 µM		> 100 µM		> 100 µM		> 100 µM		> 100 µM		> 100 µM		> 100 µM		> 100 µM		> 100 µM
CN1CC[C@@H](c2c(O)cc(O)c3c(=O)cc(-c4ccccc4Cl)oc23)[C@@H](O)C1		> 39.6 µM	91.7 nM	0.223 µM and 0.116 µM	77.4 nM and 90.2 nM		33.8 nM and 25.8 nM	27.5 µM	47.6 nM		117 nM and 38.4 nM		51.1 nM	26.6 µM	62.9 nM and 46 nM	> 77.4 µM	57.7 nM and 28.8 nM		119 nM and 93.7 nM	34.8 µM
O=C(CN1CCN(c2ncccn2)CC1)Nc1ccc(Cl)cc1C(=O)c1ccccc1Cl	> 100000 nM	> 100 µM	> 100000 nM	> 100 µM	> 100000 nM	> 100 µM	78700 nM	> 100 µM	> 100000 nM	> 100 µM	13200 nM	57.5 µM	69000 nM	> 100 µM	83300 nM	> 100 µM	> 100000 nM	> 100 µM	> 100000 nM	> 100 µM
COc1ccc2c(c1)[nH]c(=O)c1c3cc(C)c(C)cc3cn21	< 10 nM	0.0102 µM	< 13.4 nM	0.0248 µM	< 10 nM	0.188 µM	< 10 nM	0.516 µM	< 14.2 nM	0.363 µM	< 18.5 nM	1.9 µM	29.2 nM	0.109 µM	92.7 nM	1.16 µM	< 10 nM	1.45 µM	320 nM	1.27 µM
C=C1C(=O)O[C@H]2[C@H]1CC/C(COC(=O)c1cc3cc(F)ccc3[nH]1)=C\CC[C@@]1(C)O[C@@H]21	1200 nM	2.62 µM	1640 nM	3.37 µM	1670 nM	3.19 µM	1500 nM	2.96 µM	1150 nM	3.34 µM	2920 nM	14.9 µM	1980 nM	5.06 µM	1020 nM	3.75 µM	1620 nM	3.3 µM	1830 nM	3.3 µM
COc1cc(C2C=C(c3cccc(NC(C)=O)c3)Nc3ncnn32)cc(OC)c1OC (centres undefined)	573 nM	> 100 µM	308 nM	1.73 µM	440 nM	7.34 µM	424 nM	> 70.2 µM	2020 nM	> 100 µM	554 nM	> 100 µM	396 nM	> 100 µM	317 nM	> 100 µM	675 nM	> 100 µM	7550 nM	> 100 µM
O=[N+]([O-])C1C(c2ccccc2)C12c1ccccc1-c1ccccc12 (centres undefined)	1030 nM	> 65.7 µM	1850 nM	10.9 µM	733 nM	3.66 µM	371 nM	11.6 µM	546 nM	30.4 µM	573 nM	17.6 µM	931 nM	16.6 µM	351 nM	30.8 µM	2300 nM	28 µM	2000 nM	16.6 µM
CC(=O)n1c(COS(C)(=O)=O)nc2ccccc21		> 100 µM		> 100 µM		> 100 µM		> 100 µM		> 100 µM		> 100 µM		> 100 µM		> 100 µM		> 100 µM		> 100 µM
COc1nc(N(C)O)nc(N(C)O)n1	491 nM	17.3 µM	1240 nM	> 100 µM	858 nM	> 100 µM	402 nM	3.88 µM	519 nM	> 100 µM	442 nM	6.3 µM	2990 nM	> 100 µM	2070 nM	> 100 µM	1160 nM	> 100 µM	1970 nM	> 100 µM
CC(=O)Nc1ccc2c(c1)c(C1=C(c3cn(C)c4ccccc34)C(=O)NC1=O)cn2C	1070 nM	24.3 µM	1300 nM	> 25 µM	4020 nM	> 25 µM	1090 nM	> 25 µM	1020 nM	> 25 µM	1980 nM	> 25 µM	1160 nM	> 25 µM	852 nM	> 15.7 µM	1410 nM	> 25 µM	4210 nM	> 25 µM
